Where “and” joins values, the source holds several entries; their conditions need not be identical. Equal values may be shown once. Inconclusive results and toxic doses are left out. Rule for the calls: active = survival T/C of 150% or more; inactive = T/C below 125% in these data.
Tested on: CD2F1 mice, L1210 leukemia ip, survival T/C
Experiment: NCI In Vivo Anticancer Drug Screen. Data for tumor model L1210 Leukemia (intraperitoneal) in CD2F1 (CDF1) mice
Conditions: higher = longer survival
How it was run: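 Antitumor effect is scored in animals hosting a serially transplanted tumor. Values compare compound-dosed animals against vehicle-only controls as a simple quotient.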

[1] = endpoint: mean survival time, dose: 100.0 mg/kg/injection, schedule: Q04DX003 (ip), vehicle: saline
[2] = endpoint: mean survival time, dose: 200.0 mg/kg/injection, schedule: Q04DX003 (ip), vehicle: saline
[3] = endpoint: mean survival time, dose: 400.0 mg/kg/injection, schedule: Q04DX003 (ip), vehicle: saline
[4] = endpoint: mean survival time, dose: 100.0 mg/kg/injection, schedule: Q04DX003 (ip), vehicle: saline with Tween-80
[5] = endpoint: mean survival time, dose: 200.0 mg/kg/injection, schedule: Q04DX003 (ip), vehicle: saline with Tween-80
[6] = endpoint: mean survival time, dose: 400.0 mg/kg/injection, schedule: Q04DX003 (ip), vehicle: saline with Tween-80
[7] = endpoint: mean survival time, dose: 25.0 mg/kg/injection, schedule: Q04DX003 (ip), vehicle: saline
[8] = endpoint: mean survival time, dose: 50.0 mg/kg/injection, schedule: Q04DX003 (ip), vehicle: saline
[9] = endpoint: median survival time, dose: 25.0 mg/kg/injection, schedule: Q01DX009 (ip), vehicle: saline with Tween-80
[10] = endpoint: median survival time, dose: 50.0 mg/kg/injection, schedule: Q01DX009 (ip), vehicle: saline with Tween-80
[11] = endpoint: median survival time, dose: 100.0 mg/kg/injection, schedule: Q01DX009 (ip), vehicle: saline with Tween-80
[12] = endpoint: median survival time, dose: 200.0 mg/kg/injection, schedule: Q01DX009 (ip), vehicle: saline with Tween-80
[13] = endpoint: mean survival time, dose: 100.0 mg/kg/injection, schedule: Q01DX009 (ip), vehicle: saline with Tween-80
[14] = endpoint: mean survival time, dose: 200.0 mg/kg/injection, schedule: Q01DX009 (ip), vehicle: saline with Tween-80
[15] = endpoint: mean survival time, dose: 400.0 mg/kg/injection, schedule: Q01DX009 (ip), vehicle: saline with Tween-80
[16] = endpoint: mean survival time, dose: 100.0 mg/kg/injection, schedule: Q01DX001 (ip), vehicle: saline
[17] = endpoint: mean survival time, dose: 200.0 mg/kg/injection, schedule: Q01DX001 (ip), vehicle: saline

Measured: T/C

O=C1C(Br)=C(c2ccccc2)C(=O)C(Br)=C1c1ccccc1
inactive: endpoint: mean survival time, dose: 100.0 mg/kg/injection, schedule: Q04DX002 (ip), vehicle: Klucel (hydroxypropylcellulose) (HPC) 90 % of control | endpoint: mean survival time, dose: 200.0 mg/kg/injection, schedule: Q04DX002 (ip), vehicle: Klucel (hydroxypropylcellulose) (HPC) 86 % of control | endpoint: mean survival time, dose: 400.0 mg/kg/injection, schedule: Q04DX002 (ip), vehicle: Klucel (hydroxypropylcellulose) (HPC) 90 % of control

Nc1cc(S(=O)(=O)O)cc2ccc(S(=O)(=O)O)cc12
inactive: endpoint: mean survival time, dose: 100.0 mg/kg/injection, schedule: Q01DX009 (ip), vehicle: saline 106 % of control | [1] 96 % of control | endpoint: mean survival time, dose: 200.0 mg/kg/injection, schedule: Q01DX009 (ip), vehicle: saline 95 % of control | [2] 92 % of control | endpoint: mean survival time, dose: 400.0 mg/kg/injection, schedule: Q01DX009 (ip), vehicle: saline 92 % of control | [3] 117 % of control

CC1=NN(c2cccc(S(=O)(=O)O)c2)C(=O)C1
inactive: endpoint: mean survival time, dose: 100.0 mg/kg/injection, schedule: Q01DX009 (ip), vehicle: saline sonified 88 % of control

Cc1ccc(/C(C#N)=C/c2ccc3c(c2)OCO3)cc1
inactive: endpoint: mean survival time, dose: 100.0 mg/kg/injection, schedule: Q04DX002 (ip), vehicle: saline with Tween-80 94 % of control | endpoint: mean survival time, dose: 200.0 mg/kg/injection, schedule: Q04DX002 (ip), vehicle: saline with Tween-80 97 % of control | endpoint: mean survival time, dose: 400.0 mg/kg/injection, schedule: Q04DX002 (ip), vehicle: saline with Tween-80 91 % of control

CCCCCC(Br)C(Br)CC(Br)C(Br)CC(Br)C(Br)CCCCC(=O)O (centres undefined)
inactive: endpoint: mean survival time, dose: 100.0 mg/kg/injection, schedule: Q01DX001 (ip), vehicle: Klucel (hydroxypropylcellulose) (HPC) 101 % of control | endpoint: mean survival time, dose: 200.0 mg/kg/injection, schedule: Q01DX001 (ip), vehicle: Klucel (hydroxypropylcellulose) (HPC) 96 % of control | endpoint: mean survival time, dose: 400.0 mg/kg/injection, schedule: Q01DX001 (ip), vehicle: Klucel (hydroxypropylcellulose) (HPC) 107 % of control

OCC1OC(n2cnc3c2NC=N[C@@H]3CO)C(O)C1O (some centres undefined)
inactive: endpoint: mean survival time, dose: 12.5 mg/kg/injection, schedule: Q01DX005 (ip), vehicle: water 100 % of control | endpoint: mean survival time, dose: 25.0 mg/kg/injection, schedule: Q01DX005 (ip), vehicle: water 100 % of control | endpoint: mean survival time, dose: 50.0 mg/kg/injection, schedule: Q01DX005 (ip), vehicle: water 104 % of control | endpoint: mean survival time, dose: 100.0 mg/kg/injection, schedule: Q01DX005 (ip), vehicle: water 109 % of control | endpoint: mean survival time, dose: 200.0 mg/kg/injection, schedule: Q01DX005 (ip), vehicle: water 111 % of control

Cc1ccc(S(=O)(=O)Nc2ccccc2N(CCN(CCOS(=O)(=O)c2ccc(C)cc2)S(=O)(=O)c2ccc(C)cc2)S(=O)(=O)c2ccc(C)cc2)cc1
inactive: endpoint: mean survival time, dose: 25.0 mg/kg/injection, schedule: Q04DX003 (ip), vehicle: saline with Tween-80 95 % of control | endpoint: mean survival time, dose: 50.0 mg/kg/injection, schedule: Q04DX003 (ip), vehicle: saline with Tween-80 100 % of control | [4] 91 % of control | [5] 95 % of control

Brc1cn[nH]c1Br
inactive: [4] 98 % of control | [5] 104 % of control | [6] 88 % of control

O=C(O)C(O)C(=O)O.[NH2-].[NH2-].[Pt+2]
inactive: [7] 108 % of control | [8] 114 % of control | [1] 120 % of control

OCC1OC(OC2C(CO)OC(Sc3ccccc3)C(O)C2O)C(O)C(O)C1O (centres undefined)
inactive: [4] 97 % of control | [1] 103 % of control | [5] 95 % of control | [2] 103 % of control | [6] 97 % of control | [3] 95 % of control

CCOC(=O)Nc1cc2c(c(N)n1)N=C(c1ccccc1)CO2
inactive: [9] 97 % of control | [10] 117 % of control and 107 % of control and 108 % of control | [11] 122 % of control and 112 % of control (2×) | [12] 115 % of control and 116 % of control and 117 % of control

Cc1ccc(-c2cc(-c3ccccc3)n(-c3ccccc3)n2)cc1
inactive: [4] 101 % of control | [5] 100 % of control | [6] 95 % of control

COC12[C@@H]3N[C@@H]3CN1C1=C(C(=O)C(N(C)CCN(C)C)=C(C)C1=O)[C@@H]2COC(N)=O (some centres undefined)
inactive: endpoint: median survival time, dose: 3.0 mg/kg/injection, schedule: Q01DX001 (ip), vehicle: saline 104 % of control | endpoint: median survival time, dose: 6.0 mg/kg/injection, schedule: Q01DX001 (ip), vehicle: saline 105 % of control | endpoint: median survival time, dose: 12.0 mg/kg/injection, schedule: Q01DX001 (ip), vehicle: saline 119 % of control and 105 % of control | endpoint: median survival time, dose: 24.0 mg/kg/injection, schedule: Q01DX001 (ip), vehicle: saline 109 % of control

C[N+]12CCN(CC1)CC2.[Cl][Pt]([Cl])[Cl]
inactive: endpoint: mean survival time, dose: 12.5 mg/kg/injection, schedule: Q04DX003 (ip), vehicle: saline 101 % of control | [7] 98 % of control | [8] 106 % of control | [1] 113 % of control | [2] 104 % of control

CC1NC(C(=O)O)Cc2cc(O)c(O)cc21 (centres undefined)
inactive: [4] 102 % of control | [5] 98 % of control | [6] 100 % of control

COc1ccc(C[C@@H]2NC[C@@H](O)[C@@H]2OC(C)=O)cc1
inactive: [13] 98 % of control | [4] 105 % of control | [14] 104 % of control | [5] 103 % of control | [6] 100 % of control

CCN(CC)CC(=O)Nc1cccc2c1C(=O)c1c(c(O)c3ccccc3c1O)C2=O
inactive: endpoint: mean survival time, dose: 6.0 mg/kg/injection, schedule: Q04DX003 (ip), vehicle: saline with Tween-80 94 % of control | endpoint: mean survival time, dose: 12.0 mg/kg/injection, schedule: Q04DX003 (ip), vehicle: saline with Tween-80 100 % of control | endpoint: mean survival time, dose: 24.0 mg/kg/injection, schedule: Q04DX003 (ip), vehicle: saline with Tween-80 96 % of control | endpoint: mean survival time, dose: 48.0 mg/kg/injection, schedule: Q04DX003 (ip), vehicle: saline with Tween-80 98 % of control

N=C(N)c1ccc(NC(=O)c2ccc(C(=O)Nc3ccc(C(=N)N)cc3)c(N)c2)cc1
inactive: endpoint: median survival time, dose: 12.5 mg/kg/injection, schedule: Q01DX009 (ip), vehicle: saline with Tween-80 101 % of control and 110 % of control | [9] 102 % of control and 112 % of control | [10] 119 % of control and 103 % of control | [11] 121 % of control and 96 % of control and 112 % of control | [12] 107 % of control

CC(C)c1ccccc1OS(=O)(=O)c1cccc([N+](=O)[O-])c1
inactive: [13] 98 % of control | [4] 100 % of control | [14] 100 % of control | [5] 99 % of control | [15] 100 % of control | [6] 106 % of control

O=C(NC(COCc1ccccc1)C(=O)O)OCc1ccccc1 (centres undefined)
inactive: [4] 88 % of control | [5] 92 % of control | [6] 100 % of control

CC#CC(=O)SCCNC(=O)CCNC(C)=O
inactive: endpoint: mean survival time, dose: 12.5 mg/kg/injection, schedule: Q01DX009 (ip), vehicle: saline with Tween-80 112 % of control | endpoint: mean survival time, dose: 25.0 mg/kg/injection, schedule: Q01DX009 (ip), vehicle: saline with Tween-80 102 % of control | [7] 105 % of control | endpoint: mean survival time, dose: 50.0 mg/kg/injection, schedule: Q01DX009 (ip), vehicle: saline with Tween-80 108 % of control | [8] 112 % of control | [13] 119 % of control | [1] 103 % of control

Nc1nc2c(c(=O)[nH]1)N1C(=S)N(c3ccc(C(=O)NC(CCC(=O)O)C(=O)O)cc3)CC1CN2 (centres undefined)
inactive: endpoint: mean survival time, dose: 100.0 mg/kg/injection, schedule: Q01DX001 (ip), vehicle: sodium bicarbonate 104 % of control | endpoint: mean survival time, dose: 200.0 mg/kg/injection, schedule: Q01DX001 (ip), vehicle: sodium bicarbonate 98 % of control | endpoint: mean survival time, dose: 400.0 mg/kg/injection, schedule: Q01DX001 (ip), vehicle: sodium bicarbonate 102 % of control

CN(C)CCNC(=O)c1ccc(N)cc1
inactive: endpoint: mean survival time, dose: 100.0 mg/kg/injection, schedule: Q04DX002 (ip), vehicle: saline 102 % of control | endpoint: mean survival time, dose: 200.0 mg/kg/injection, schedule: Q04DX002 (ip), vehicle: saline 102 % of control

N#CCCCSc1ccccc1
inactive: [16] 96 % of control | [17] 106 % of control

CCOC(=O)C1=C(C)NC(C)=C(C(=O)OCC)C1c1ccc(Cl)cc1
inactive: [13] 96 % of control | [14] 100 % of control | [15] 96 % of control

Cc1ccc(S(=O)(=O)NCC(Br)CBr)cc1 (centres undefined)
inactive: [13] 93 % of control | [4] 100 % of control | [14] 93 % of control | [5] 98 % of control | [15] 96 % of control | [6] 100 % of control

ClC(Cl)c1ccccc1C(Cl)(Cl)Cl
inactive: [16] 104 % of control | [13] 99 % of control | [4] 94 % of control | [17] 98 % of control | [14] 101 % of control | [5] 94 % of control | endpoint: mean survival time, dose: 400.0 mg/kg/injection, schedule: Q01DX001 (ip), vehicle: saline 98 % of control | [15] 94 % of control | [6] 88 % of control

O=C(CC1CCCCC1)N/N=C/c1cccc([N+](=O)[O-])c1
inactive: [13] 90 % of control | [14] 93 % of control | [15] 90 % of control

Reference: PubChem BioAssay AID256 (DTP/NCI, 2004)
